Patent US20250296928A1, “A SYNTHESIS SCHEME AND PROCEDURES FOR PREPARING A SIK3 INHIBITOR AND INTERMEDIATES THEREOF” (iOmx Therapeutics AG, priority 2021, published 2025)

Assays:
[1] = system: HDAC4 phosphorylation; assay: TNF-induced phosphorylation of HDAC4; type: cell-based; settings: for Inhibition of HDAC4 phosphorylation: TNF-induced; for Inhibition of HDAC phosphorylation: summary Table 4.3
[2] = system: NFKB activity (MC38); assay: TNF-induced NFKB activity in MC38 cells; type: cell-based, mouse; settings: for Inhibition of NFKB activity (MC38): TNF-induced, 10 ng/ml rMuTNF; for Inhibition of NFKB activity: summary Table 4.3, cell line not stated
Description: TNF-induced NFKB activity in MC38 cells was measured analogously to the assay in PANC-1 cells described in connection with Example 9.2 (Table 9C) of WO2020/083926), except that 10 ng/ml rMuTNF was used.

[3] = system: NFKB activity (PANC-1); assay: TNF-induced NFKB activity in PANC-1 cells; type: cell-based
[4] = Screening PK in mice, 30 mg/kg po; type: in vivo
[5] = Human liver microsomal stability; type: in vitro ADME
[6] = Murine plasma protein binding; type: in vitro ADME, mouse
[7] = Mouse liver microsomal stability; type: in vitro ADME
[8] = Full pharmacokinetic study with oral administration in mice; type: in vivo
[9] = Human plasma-protein binding; type: in vitro ADME; settings: for fraction unbound: human, plasma
[10] = Human hepatocyte stability; type: in vitro ADME; settings: for clearance classification: from human hepatocyte stability
[11] = system: MDCK-wild type cells; assay: Permeability and efflux in MDCK-wild type cells
[12] = system: MC38 cells; assay: MC38 syngeneic tumour model, in-vivo anti-cancer efficacy
Description: Y-axis=Mean tumour volume (mm3). Error bars SEM Statistical significance was calculated with one-way ANOVA analysis including Tukey's multiple comparison analysis. X-axis=Days. (B) Probability of tumour volume <1000 mm3 of the mice in (A). Y-axis: Probability of occurrence of tumour volumes <=1000 mm3 upon treatment. X-axis: Days. […] (C) to (H) Tumour growth curves of individual mice; Y-axis: Tumour volume (mm3), X-axis: Days.

[13] = system: MDCK-MDR1 cells (P-gp); assay: Permeability and efflux in MDCK-MDR1 cells; type: in vitro ADME
[14] = Mouse hepatocyte stability; type: in vitro ADME
[15] = molecular target: T1, SIK3 (Homo sapiens, UniProt Q9Y2K2); assay: Radiometric protein kinase assay (33PanQinase Activity Assay), SIK3; type: biochemical
T1 construct: purchased ProQuinase, Freiburg, Germany
T1 sequence (Q9Y2K2 whole entry): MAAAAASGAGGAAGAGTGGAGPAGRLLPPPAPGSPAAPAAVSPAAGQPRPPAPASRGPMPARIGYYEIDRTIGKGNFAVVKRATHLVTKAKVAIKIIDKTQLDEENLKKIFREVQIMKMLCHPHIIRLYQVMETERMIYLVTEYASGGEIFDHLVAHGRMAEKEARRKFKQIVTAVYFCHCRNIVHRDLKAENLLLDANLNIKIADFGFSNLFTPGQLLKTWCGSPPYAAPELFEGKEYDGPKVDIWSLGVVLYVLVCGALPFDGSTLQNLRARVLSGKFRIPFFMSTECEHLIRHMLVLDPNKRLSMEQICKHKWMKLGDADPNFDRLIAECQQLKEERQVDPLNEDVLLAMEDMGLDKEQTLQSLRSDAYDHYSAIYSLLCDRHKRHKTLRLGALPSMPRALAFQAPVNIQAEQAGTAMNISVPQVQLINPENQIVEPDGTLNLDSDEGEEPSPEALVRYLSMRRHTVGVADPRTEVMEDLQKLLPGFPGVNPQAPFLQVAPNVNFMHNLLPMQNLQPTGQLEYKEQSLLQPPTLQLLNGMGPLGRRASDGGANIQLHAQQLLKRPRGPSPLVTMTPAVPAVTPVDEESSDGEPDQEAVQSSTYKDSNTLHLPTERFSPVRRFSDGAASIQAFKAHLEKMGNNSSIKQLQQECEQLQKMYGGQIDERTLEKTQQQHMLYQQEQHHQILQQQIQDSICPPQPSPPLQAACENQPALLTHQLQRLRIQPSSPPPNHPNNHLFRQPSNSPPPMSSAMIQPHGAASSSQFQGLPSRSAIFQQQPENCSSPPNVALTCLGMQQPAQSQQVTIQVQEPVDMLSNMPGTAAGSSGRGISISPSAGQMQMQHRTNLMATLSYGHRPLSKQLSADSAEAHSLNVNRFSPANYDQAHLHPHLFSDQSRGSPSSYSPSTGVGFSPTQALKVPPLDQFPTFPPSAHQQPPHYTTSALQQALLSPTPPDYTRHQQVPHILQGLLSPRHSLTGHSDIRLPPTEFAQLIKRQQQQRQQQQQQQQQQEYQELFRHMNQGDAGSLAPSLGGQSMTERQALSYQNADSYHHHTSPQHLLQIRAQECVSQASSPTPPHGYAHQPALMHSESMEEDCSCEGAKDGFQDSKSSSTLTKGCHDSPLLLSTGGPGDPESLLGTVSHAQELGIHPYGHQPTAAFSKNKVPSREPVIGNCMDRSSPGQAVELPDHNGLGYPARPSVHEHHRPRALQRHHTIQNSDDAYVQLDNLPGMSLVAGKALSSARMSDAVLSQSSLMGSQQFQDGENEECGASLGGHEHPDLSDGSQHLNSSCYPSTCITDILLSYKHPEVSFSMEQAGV
Description: (§1) Incorporation of 33Pi was determined with a microplate scintillation counter (Microbeta, Wallac).

[16] = system: MC38 syngeneic tumour model; assay: MC38 syngeneic tumour model, comparative study E9 versus dasatinib (FIG. 5); type: in vivo, mice; settings: 25 mg/kg BID
Description: Left hand column=compound treatment group; and right hand column=vehicle treatment group. Y axes=Tumour volume (mm3); X axes=Days after inoculation.

[17] = system: P-gp (MDR1); assay: Permeability and efflux in MDCK-MDR1 cells; type: in vitro ADME; settings: dog
[18] = in vitro; settings: dog, MDCK
[19] = molecular target: T2, SIK2 (Homo sapiens, UniProt Q9H0K1); assay: Radiometric protein kinase assay (33PanQinase Activity Assay), SIK2; type: biochemical; settings: ATP 1.0 μM
T2 construct: purchased ProQuinase, Freiburg, Germany
T2 sequence (Q9H0K1 whole entry): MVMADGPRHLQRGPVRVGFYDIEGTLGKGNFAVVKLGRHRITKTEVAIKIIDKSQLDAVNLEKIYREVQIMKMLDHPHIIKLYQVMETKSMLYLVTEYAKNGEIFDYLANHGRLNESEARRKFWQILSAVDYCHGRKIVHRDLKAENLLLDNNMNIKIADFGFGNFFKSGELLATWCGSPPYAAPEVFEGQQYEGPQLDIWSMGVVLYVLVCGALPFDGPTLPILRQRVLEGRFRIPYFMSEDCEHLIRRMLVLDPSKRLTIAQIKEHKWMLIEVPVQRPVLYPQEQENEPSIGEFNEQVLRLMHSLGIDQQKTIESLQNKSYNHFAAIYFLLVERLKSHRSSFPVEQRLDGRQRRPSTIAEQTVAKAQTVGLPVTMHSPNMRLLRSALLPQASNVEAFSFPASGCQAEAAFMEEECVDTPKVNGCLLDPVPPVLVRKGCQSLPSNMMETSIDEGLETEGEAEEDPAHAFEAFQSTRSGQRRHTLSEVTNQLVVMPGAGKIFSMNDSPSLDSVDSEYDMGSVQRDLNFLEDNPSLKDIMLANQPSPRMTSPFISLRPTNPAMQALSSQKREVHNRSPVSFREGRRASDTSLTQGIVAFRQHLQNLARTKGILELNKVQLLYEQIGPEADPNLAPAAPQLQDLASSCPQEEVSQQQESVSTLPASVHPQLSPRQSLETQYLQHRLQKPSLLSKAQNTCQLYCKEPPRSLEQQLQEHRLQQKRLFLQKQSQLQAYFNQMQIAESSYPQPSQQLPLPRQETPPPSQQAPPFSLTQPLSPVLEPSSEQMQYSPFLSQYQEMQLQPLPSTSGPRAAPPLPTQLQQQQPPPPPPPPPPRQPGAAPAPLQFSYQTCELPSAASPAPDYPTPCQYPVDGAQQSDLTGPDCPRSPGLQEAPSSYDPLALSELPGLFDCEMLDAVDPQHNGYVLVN
Description: as §1

[20] = mice, 30 mg/kg po, Free plasma concentration
[21] = mice, 30 mg/kg po, Total plasma concentration
[22] = Total plasma concentration at 30 mg/kg p.o dose, C7 = 1x
[23] = mouse, plasma, mice, 30 mg/kg po, Free

Cc1nc(Nc2ncc(C(=O)Nc3c(C)cccc3Cl)s2)cc(N2CCN(CCO)CC2)n1 [Compound A8, N-(2-chloro-6-methylphenyl)-2-[[6-[4-(2-hydroxyethyl)-1-piperazinyl]-2-methyl-4-pyrimidinyl]amino]-5-thiazolecarboxamide]
Inhibition of HDAC4 phosphorylation [1]: ++
Inhibition of NFKB activity (MC38) [2]: +
Inhibition of NFKB activity (PANC-1) [3]: +
Cmax ([4]; mouse, plasma, 30 mg/kg po, 2 h): 550 ng/mL

Cc1nc(Nc2ncc(C(=O)Nc3c(Cl)ccnc3C)s2)cc(N2CCN(CCO)CC2)n1 [Compound B3]
Human liver microsomal stability: Half-life ([5]; human liver microsomes): 58 min
Human liver microsomal stability: Intrinsic clearance ([5]; human liver microsomes): 24 µL/min/mg
Murine plasma protein binding: Percentage unbound ([6]; murine plasma): 11%
Mouse liver microsomal stability: Half-life ([7]; mouse liver microsomes): 62 min
Mouse liver microsomal stability: Intrinsic clearance ([7]; mouse liver microsomes): 22 µL/min/mg
Tmax ([8]; mice, 30 mg/kg po, Free): 30 min
t1/2 ([8]; mice, 30 mg/kg po, Free): 144 min
Cmax [8, 20]: 10.7 ng/mL
% AUCextrap ([8]; mice, 30 mg/kg po, Total): 14%
AUCinf ([8]; mice, 30 mg/kg po, Total): 697 nM·h
AUClast ([8]; mice, 30 mg/kg po, Total): 589 nM·h
Tmax ([8]; mice, 30 mg/kg po, Total): 30 min
t1/2 ([8]; mice, 30 mg/kg po, Total): 144 min
Cmax [8, 21]: 99 ng/mL
Cmax after 2 h ([4]; 30 mg/kg po, 2 h): 56 ng/mL
Free plasma concentration after 6 h ([4]; 30 mg/kg po, 6 h, free): 3 nM
Plasma concentration after 6 h ([4]; 30 mg/kg po, 6 h, total): 29 nM
Human plasma-protein binding: Percentage unbound [9]: 7%

Cc1nc(Nc2ncc(C(=O)Nc3c(C)csc3Cl)s2)cc(N2CCN(CCO)CC2)n1 [Compound C7]
clearance classification [10]: medium-to-high clearance drugs
Human hepatocyte stability: Half-life ([10]; human hepatocytes): 54 min
Human hepatocyte stability: Intrinsic clearance ([10]; human hepatocytes): 26 µL/min/mg
half-life in the presence of human hepatocytes ([10]; human hepatocytes): approx. 1 h
Human liver microsomal stability: Half-life ([5]; human liver microsomes): 10 min
Human liver microsomal stability: Intrinsic clearance ([5]; human liver microsomes): 142 µL/min/mg
Inhibition of HDAC4 phosphorylation [1]: +
Inhibition of HDAC phosphorylation [1]: +
Murine plasma protein binding: Percentage unbound ([6]; murine plasma): 3%
Murine plasma protein binding: Recovery at 4 h ([6]; murine plasma, 4 h): 87%
Inhibition of NFKB activity (MC38) [2]: +
Inhibition of NFKB activity [2]: +
Mean Papp A > B [11]: 9 10^−6 cm/s
Mouse liver microsomal stability: Half-life ([7]; mouse liver microsomes): 13 min
Mouse liver microsomal stability: Intrinsic clearance ([7]; mouse liver microsomes): 110 µL/min/mg
Body weight increase ([12]; 100 mg/Kg, BID, po): 1.0%
Non-treatment related death ([12]; 100 mg/Kg, BID, po): 3/16
Tumour growth inhibition ([12]; 100 mg/Kg, BID, po): 78%
Mean Papp A > B [13]: 2 10^−6 cm/s
Mouse hepatocyte stability: Half-life ([14]; mouse hepatocytes): 50 min
Mouse hepatocyte stability: Intrinsic clearance ([14]; mouse hepatocytes): 28 µL/min/mg
Inhibition of NFKB activity (PANC-1) [3]: +
% AUCextrap ([8]; mice, 30 mg/kg po, Free): 11.24%
AUCinf ([8]; mice, 30 mg/kg po, Free): 58.79 nM·h
AUClast ([8]; mice, 30 mg/kg po, Free): 52.07 nM·h
MRTlast ([8]; mice, 30 mg/kg po, Free): 165 min
Rsq ([8]; mice, 30 mg/kg po, Free): 0.99
Tmax ([8]; mice, 30 mg/kg po, Free): 120 min
t1/2 ([8]; mice, 30 mg/kg po, Free): 85.2 min
Cmax [8, 20]: 21.34 ng/mL
% AUCextrap ([8]; mice, 30 mg/kg po, Total): 11.24%
AUCinf ([8]; mice, 30 mg/kg po, Total): 1,306.48 nM*h
AUClast ([8]; mice, 30 mg/kg po, Total): 1,157.10 nM*h
MRTlast ([8]; mice, 30 mg/kg po, Total): 165 min
Rsq ([8]; mice, 30 mg/kg po, Total): 0.99
Tmax ([8]; mice, 30 mg/kg po, Total): 120 min
t1/2 ([8]; mice, 30 mg/kg po, Total): 85.2 min
Cmax [8, 21]: 474.16 ng/mL
Human plasma-protein binding: Percentage unbound [9]: 2%
Human plasma-protein binding: Recovery at 4 h ([9]; 4 h): 75%

Cc1nc(Nc2ncc(C(=O)Nc3c(C)csc3Cl)s2)cc(N2CCN(C)CC2)n1 [Compound D9]
IC50 ([15]; ATP 1.0 μM): ~60 nM
Inhibition of HDAC4 phosphorylation [1]: +
Inhibition of NFKB activity (PANC-1) [3]: +
Free plasma concentration after 6 h ([4]; 30 mg/kg po, 6 h, free): 8 nM

Cc1nc(Nc2ncc(C(=O)Nc3c(CF)csc3Cl)s2)cc(N2CCN(C)CC2)n1 [Compound E9, N-(2-chloro-4-(fluoromethyl)thiophen-3-yl)-2-((2-methyl-6-(4-methylpiperazin-1-yl)pyrimidin-4-yl)amino)thiazole-5-carboxamide]
clearance classification [10]: high clearance drugs
half-life ([10]; human hepatocytes): ~25 min
clearance classification ([5]; from human liver microsomal stability): high clearance drugs
half-life ([5]; human liver microsomes): ~10 min
microsomal CLint ([5]; human liver microsomes, read-out: Human liver microsomal stability: Intrinsic clearance): 130 to 150 µL/min/mg
SIK3 IC50 (nM), relative to C7 ([15]; relative to C7 = 1x): 0.3x
potency against SIK3 improved over C7 and D9 ([15]; relative to C7 and D9): 2-3 times
Inhibition of HDAC4 phosphorylation [1]: ++
Inhibition of HDAC phosphorylation [1]: ++
fraction unbound ([6]; mouse plasma): < 0.05
fraction unbound at 4 h ([6]; mouse, murine plasma, read-out: Murine plasma protein binding: Percentage unbound): 0.01
Inhibition of NFKB activity [2]: ++
average TGI [16]: 72%
clearance classification ([7]; from mouse liver microsomal stability): high clearance drugs
half-life ([7]; mouse liver microsomes): ~10 min
microsomal CLint ([7]; mouse liver microsomes, read-out: Mouse liver microsomal stability: Intrinsic clearance): 130 to 150 µL/min/mg
Body weight increase ([12]; 25 mg/Kg, BID, po): 16.8%
Tumour growth inhibition ([12]; 25 mg/Kg, BID, po): 74%
Body weight increase ([12]; 50 mg/Kg, BID, po): 18.7%
Tumour growth inhibition ([12]; 50 mg/Kg, BID, po): 69%
treatment related side effects and clinical signs ([12]; administered orally): no direct treatment related side effects and clinical signs
Papp A→B [17]: 5 ×10⁻⁶ cm/s
clearance classification ([14]; from mouse hepatocyte stability): medium clearance drug
half-life ([14]; mouse hepatocytes): ~65 min
AUC0-last (nM*h), relative to C7 [8, 22]: 8.2x
C max (ng/ml), relative to C7 [8, 22]: 5.6x
MRT0-last (h), relative to C7 [8, 22]: 1.2x
t1/2 (h), relative to C7 [8, 22]: 2x
% AUCextrap ([8]; mice, 30 mg/kg po, Free): 0.49%
MRTlast ([8]; mice, 30 mg/kg po, Free): 203 min
Rsq ([8]; mice, 30 mg/kg po, Free): 0.84
Tmax ([8]; mice, 30 mg/kg po, Free): 15 min
t1/2 ([8]; mice, 30 mg/kg po, Free): 166 min
% AUCextrap ([8]; mice, 30 mg/kg po, Total): 0.49%
Rsq ([8]; mice, 30 mg/kg po, Total): 0.84
AUC(0-inf) [8, 23]: 0.24 µM·h
AUC(0-t) [8, 23]: 0.239 µM·h
Cmax ([8]; mouse, mice, 30 mg/kg po, Free plasma concentration, read-out: Cmax): 66.9 ng/mL
Papp A→B [18]: 10 ×10⁻⁶ cm/s
efflux ratio [18]: 20 to 30
IC50 [19]: < 10 nM
improvement for free serum concentration over C7 ([4]; 30 mg/Kg po, free): 2 fold
improvement for total serum concentration over C7 ([4]; 30 mg/Kg po, total): 4.5 fold
fraction unbound ([9]; read-out: Human plasma-protein binding: Percentage unbound): 0.01
fraction unbound ([9]; read-out: human plasma protein binding): < 0.05
